Measured values from patent US6165982A, “Use of sericin as antioxidants and tyrosinase inhibitors” (Seiren Co., Ltd., priority 1996, dated 2000).

System: rat brain homogenate
Experiment: Inhibitory test of lipid peroxide in rat brain homogenate (TBARS, TBA method)
Type: biochemical
Details: for Inhibitory rate on an increase in lipid peroxide: 37° C., 2 hours, TBARS
Method: To 1 g of the rat brain stored under refrigeration was added 9 ml of 0.075M phosphate buffer (pH 7.5) and the mixture was homogenated under ice-cooling (hereinafter referred to as homogenate). To 0.5 ml of the homogenate obtained above was added 3.5 ml each of 0.075M phosphate buffers containing Sericin L and Sericin H (pH 7.5), respectively. Incubation was continued at 37° C. for 2 hours. At the end of this time, the respective final concentrations of sericin were made to 0.02~0.5%. Immediately before the isolation and after the incubation for 2 hours, 0.5 ml each of the samples was recovered and then TBARS (thiobarbituric acid reactive substance), an indicator of lipid peroxide level, was determined according to the TBA (thiobarbituric acid) method. Antioxidizing ability of sericin was calculated from the TBARS amount obtained when no sericin was added and the TBARS amount obtained when sericin was added according to the following equation 1 and expressed in terms of an inhibitory rate on an increase in lipid peroxide by incubation. In all cases of this Test Example and the following Test Examples 2~5, tests were repeated three times and the results were shown with an average value of the numerical values thus obtained. Inhibitory rate (%)=(1-A/B)×100 Equation 1 A: Increased TBARS amount obtained when a lipid peroxide inhibitory agent (an antioxidant) was added B: Increased TBARS amount obtained when no lipid peroxide inhibitory agent (an antioxidant) was added To 0.5 ml of a sample were added 2.5 ml of a 8% trichloroacetic acid solution and 2.0 ml of a 0.67% thiobarbituric acid solution and the resulting mixture was thoroughly mixed and then heated in a boiling water bath for 15 minutes. Thereafter, the mixture was centrifuged at 2000× g for 10 minutes and the supernatant was measured for absorbance at 535 nm to determine a TBARS amount. 1,1,3,3-Tetraethoxypropane was used as a standard. To 0.5 ml of the homogenate obtained above was added 3.5 ml each of 0.075M phosphate buffers (pH 7.5) containing Sericin L, ascorbic acid (vitamin C) and bovine serum albumin, respectively. Incubation was continued at 37° C. for 2 hours. The final concentrations of Sericin L, ascorbic acid and albumin were made to 0.01%~1.0%. After incubation, a TBARS amount was determined according to the TBA method, similarly to Test Example 1 and inhibitory rates on an increase in lipid peroxide were determined, respectively.

## O=C1O[C@H]([C@@H](O)CO)C(O)=C1O [Ascorbic acid, ascorbic acid]
Final concentration 0.01%
  Inhibitory rate on an increase in lipid peroxide: -39%
Final concentration 0.05%
  Inhibitory rate on an increase in lipid peroxide: 39%
Final concentration 0.1%
  Inhibitory rate on an increase in lipid peroxide: 87%
Final concentration 0.5%
  Inhibitory rate on an increase in lipid peroxide: 97%
Final concentration 1.0%
  Inhibitory rate on an increase in lipid peroxide: 96%
Low concentration range of 0.01%
  Effect on oxidation at low concentration (in words): oxidation may be accelerated
